Experiments:
Type in all cases: in vivo
[1] = system: Diabrotica Balteata (Corn Root Worm); experiment: Example B1: Diabrotica balteata, spray on maize sprouts; settings: 96 h, application rate of 200 ppm, L2 larvae, 4 days after infestation, read-out: control in at least one of the two categories (mortality or growth inhibition)
Description: Maize sprouts placed onto an agar layer in 24-well microtiter plates were treated with aqueous test solutions prepared from 10′000 ppm DMSO stock solutions by spraying. After drying, the plates were infested with L2 larvae (6 to 10 per well). The samples were assessed for mortality and growth inhibition in comparison to untreated samples 4 days after infestation.

[2] = system: Plutella xylostella (Diamond Back Moth); experiment: Example B5: Plutella xylostella, artificial diet, 24-well; settings: 192 h, application rate of 200 ppm, eggs, 8 days after infestation, read-out: control in at least one of the two categories (mortality or growth inhibition)
Description: 24-well microtiter plates with artificial diet were treated with aqueous test solutions prepared from 10′000 ppm DMSO stock solutions by pipetting. After drying, Plutella eggs were pipetted through a plastic stencil onto a gel blotting paper and the plate was closed with it. The samples were assessed for mortality and growth inhibition in comparison to untreated samples 8 days after infestation.

[3] = system: Chilo suppressalis (Striped Rice Stemborer); experiment: Example B4: Chilo suppressalis, artificial diet; settings: 144 h, application rate of 200 ppm, L2 larvae, 6 days after infestation, read-out: control in at least one of the three categories (mortality, anti-feedant effect, or growth inhibition)
Description: 24-well microtiter plates with artificial diet were treated with aqueous test solutions prepared from 10′000 ppm DMSO stock solutions by pipetting. After drying, the plates were infested with L2 larvae (6-8 per well). The samples were assessed for mortality, anti-feeding effect, and growth inhibition in comparison to untreated samples 6 days after infestation. Control of Chilo suppressalis by a test sample is given when at least one of the categories mortality, anti-feedant effect, and growth inhibition is higher than the untreated sample.

[4] = system: Spodoptera littoralis (Egyptian Cotton Leaf Worm); experiment: Example B9: Spodoptera littoralis, spray on cotton leaf discs; settings: foliar, 72 h, application rate of 200 ppm, L1 larvae, 3 days after infestation, read-out: control in at least one of the three categories (mortality, anti-feedant effect, or growth inhibition)
Description: Cotton leaf discs were placed onto agar in 24-well microtiter plates and sprayed with aqueous test solutions prepared from 10′000 ppm DMSO stock solutions. After drying the leaf discs were infested with five L1 larvae. The samples were assessed for mortality, anti-feeding effect, and growth inhibition in comparison to untreated samples 3 days after infestation. Control of Spodoptera littoralis by a test sample is given when at least one of the categories mortality, anti-feedant effect, and growth inhibition is higher than the untreated sample.

CC(NC(=O)c1cc(C(F)(F)F)cc(C(F)(F)F)c1)c1nc(Br)nn1-c1ncc(OC(F)F)cn1 (stereo not drawn) [Compound P2, N-[1-[5-bromo-2-[5-(difluoromethoxy)pyrimidin-2-yl]-1,2,4-triazol-3-yl]ethyl]-3,5-bis(trifluoromethyl) benzamide]
≥ 80%: percent control (mortality or growth inhibition) at 200 ppm [1] | percent control (mortality or growth inhibition) at 200 ppm [2] | percent control (mortality, anti-feedant effect or growth inhibition) at 200 ppm [3] | percent control (mortality, anti-feedant effect or growth inhibition) at 200 ppm [4]

CC(NC(=O)c1cc(SC(F)(F)F)cc(C(F)(F)F)c1)c1nc(Br)nn1-c1ccc(C#N)cn1 (stereo not drawn) [Compound P5, N-[1-[5-bromo-2-(5-cyano-2-pyridyl)-1,2,4-triazol-3-yl]ethyl]-3-(trifluoromethyl)-5-(trifluoromethylsulfanyl)benzamide]
≥ 80%: percent control (mortality or growth inhibition) at 200 ppm [1] | percent control (mortality or growth inhibition) at 200 ppm [2] | percent control (mortality, anti-feedant effect or growth inhibition) at 200 ppm [3] | percent control (mortality, anti-feedant effect or growth inhibition) at 200 ppm [4]

CC(NC(=O)c1cc(C(F)(F)F)cc(C(F)(F)F)c1)c1nc(Br)nn1-c1ccc(OC(F)F)cn1 (stereo not drawn) [Compound P6, N-[1-[5-bromo-2-[5-(difluoromethoxy)-2-pyridyl]-1,2,4-triazol-3-yl]ethyl]-3,5-bis(trifluoromethyl) benzamide]
≥ 80%: percent control (mortality or growth inhibition) at 200 ppm [1] | percent control (mortality or growth inhibition) at 200 ppm [2] | percent control (mortality, anti-feedant effect or growth inhibition) at 200 ppm [3] | percent control (mortality, anti-feedant effect or growth inhibition) at 200 ppm [4]

CC(NC(=O)c1cc(OC(F)F)cc(C(F)(F)F)c1)c1nc(Br)nn1-c1ccc(OC(F)F)cn1 (stereo not drawn) [Compound P7, N-[1-[5-bromo-2-[5-(difluoromethoxy)-2-pyridyl]-1,2,4-triazol-3-yl]ethyl]-3-(difluoromethoxy)-5-(trifluoromethyl) benzamide]
≥ 80%: percent control (mortality or growth inhibition) at 200 ppm [1] | percent control (mortality or growth inhibition) at 200 ppm [2] | percent control (mortality, anti-feedant effect or growth inhibition) at 200 ppm [3] | percent control (mortality, anti-feedant effect or growth inhibition) at 200 ppm [4]

CC(NC(=O)c1cc(OC(F)(F)F)cc(C(F)(F)F)c1)c1nc(Br)nn1-c1ccc(C#N)cn1 (stereo not drawn) [Compound P9, N-[1-[5-bromo-2-(5-cyano-2-pyridyl)-1,2,4-triazol-3-yl]ethyl]-3-(trifluoromethoxy)-5-(trifluoromethyl)benzamide]
≥ 80%: percent control (mortality or growth inhibition) at 200 ppm [1] | percent control (mortality or growth inhibition) at 200 ppm [2] | percent control (mortality, anti-feedant effect or growth inhibition) at 200 ppm [3] | percent control (mortality, anti-feedant effect or growth inhibition) at 200 ppm [4]

CC(NC(=O)c1cc(OC(F)F)cc(C(F)(F)F)c1)c1nc(Br)nn1-c1ccc(C#N)cn1 (stereo not drawn) [Compound P10, N-[1-[5-bromo-2-(5-cyano-2-pyridyl)-1,2,4-triazol-3-yl]ethyl]-3-(difluoromethoxy)-5-(trifluoromethyl)benzamide]
≥ 80%: percent control (mortality or growth inhibition) at 200 ppm [1] | percent control (mortality or growth inhibition) at 200 ppm [2] | percent control (mortality, anti-feedant effect or growth inhibition) at 200 ppm [3] | percent control (mortality, anti-feedant effect or growth inhibition) at 200 ppm [4]

CC(NC(=O)c1cc(C(F)(F)F)cc(C(F)(F)F)c1)c1nc(Br)nn1-c1ccc(C#N)cn1 (stereo not drawn) [Compound P11, N-[1-[5-bromo-2-(5-cyano-2-pyridyl)-1,2,4-triazol-3-yl]ethyl]-3,5-bis(trifluoromethyl)benzamide]
≥ 80%: percent control (mortality or growth inhibition) at 200 ppm [1] | percent control (mortality or growth inhibition) at 200 ppm [2] | percent control (mortality, anti-feedant effect or growth inhibition) at 200 ppm [3] | percent control (mortality, anti-feedant effect or growth inhibition) at 200 ppm [4]

CC(NC(=O)c1cc(OCC(F)(F)F)cc(C(F)(F)F)c1)c1nc(Br)nn1-c1ccc(OC(F)F)cn1 (stereo not drawn) [Compound P14, N-[1-[5-bromo-2-[5-(difluoromethoxy)-2-pyridyl]-1,2,4-triazol-3-yl]ethyl]-3-(2,2,2-trifluoroethoxy)-5-(trifluoromethyl) benzamide]
≥ 80%: percent control (mortality or growth inhibition) at 200 ppm [1] | percent control (mortality or growth inhibition) at 200 ppm [2] | percent control (mortality, anti-feedant effect or growth inhibition) at 200 ppm [3] | percent control (mortality, anti-feedant effect or growth inhibition) at 200 ppm [4]

CC(NC(=O)c1cc(OC(F)(F)F)cc(C(F)(F)F)c1)c1nc(Br)nn1-c1ncc(OCC(F)F)cn1 (stereo not drawn) [Compound P22, N-[1-[5-bromo-2-[5-(2,2-difluoroethoxy)pyrimidin-2-yl]-1,2,4-triazol-3-yl]ethyl]-3-(trifluoromethoxy)-5-(trifluoromethyl) benzamide]
≥ 80%: percent control (mortality or growth inhibition) at 200 ppm [1] | percent control (mortality or growth inhibition) at 200 ppm [2] | percent control (mortality, anti-feedant effect or growth inhibition) at 200 ppm [3] | percent control (mortality, anti-feedant effect or growth inhibition) at 200 ppm [4]

CC(NC(=O)c1cc(SC(F)(F)F)cc(C(F)(F)F)c1)c1nc(Br)nn1-c1ncc(OCC(F)F)cn1 (stereo not drawn) [Compound P24, N-[1-[5-bromo-2-[5-(2,2-difluoroethoxy)pyrimidin-2-yl]-1,2,4-triazol-3-yl]ethyl]-3-(trifluoromethyl)-5-(trifluoromethyl-sulfanyl)benzamide]
≥ 80%: percent control (mortality or growth inhibition) at 200 ppm [1] | percent control (mortality or growth inhibition) at 200 ppm [2] | percent control (mortality, anti-feedant effect or growth inhibition) at 200 ppm [3] | percent control (mortality, anti-feedant effect or growth inhibition) at 200 ppm [4]

CC(NC(=O)c1cc(C(F)(F)F)cc(C(F)(F)F)c1)c1nc(Br)nn1-c1ncc(OCC(F)F)cn1 (stereo not drawn) [Compound P25, N-[1-[5-bromo-2-[5-(2,2-difluoroethoxy)pyrimidin-2-yl]-1,2,4-triazol-3-yl]ethyl]-3,5-bis(trifluoromethyl) benzamide]
≥ 80%: percent control (mortality or growth inhibition) at 200 ppm [1] | percent control (mortality or growth inhibition) at 200 ppm [2] | percent control (mortality, anti-feedant effect or growth inhibition) at 200 ppm [3] | percent control (mortality, anti-feedant effect or growth inhibition) at 200 ppm [4]

CC(NC(=O)c1cc(OCC(F)F)cc(C(F)(F)F)c1)c1nc(Br)nn1-c1ccc(C#N)cn1 (stereo not drawn) [Compound P33, N-[1-[5-bromo-2-(5-cyano-2-pyridyl)-1,2,4-triazol-3-yl]ethyl]-3-(2,2-difluoroethoxy)-5-(trifluoromethyl)benzamide]
≥ 80%: percent control (mortality or growth inhibition) at 200 ppm [2] | percent control (mortality, anti-feedant effect or growth inhibition) at 200 ppm [3] | percent control (mortality, anti-feedant effect or growth inhibition) at 200 ppm [4]

CC(NC(=O)c1cc(Cl)cc(C(F)(F)F)c1)c1nc(Br)nn1-c1ccc(OCC(F)(F)F)cn1 (stereo not drawn) [Compound P37, N-[1-[5-bromo-2-[5-(2,2,2-trifluoroethoxy)-2-pyridyl]-1,2,4-triazol-3-yl]ethyl]-3-chloro-5-(trifluoromethyl) benzamide]
≥ 80%: percent control (mortality or growth inhibition) at 200 ppm [2] | percent control (mortality, anti-feedant effect or growth inhibition) at 200 ppm [3] | percent control (mortality, anti-feedant effect or growth inhibition) at 200 ppm [4]

CC(NC(=O)c1cc(OCC(F)(F)F)cc(C(F)(F)F)c1)c1nc(Br)nn1-c1ccc(OCC(F)(F)F)cn1 (stereo not drawn) [Compound P39, N-[1-[5-bromo-2-[5-(2,2,2-trifluoroethoxy)-2-pyridyl]-1,2,4-triazol-3-yl]ethyl]-3-(2,2,2-trifluoroethoxy)-5-(trifluoromethyl) benzamide]
≥ 80%: percent control (mortality or growth inhibition) at 200 ppm [2] | percent control (mortality, anti-feedant effect or growth inhibition) at 200 ppm [4]

CC(NC(=O)c1cc(C(F)(F)F)cc(C(F)(F)F)c1)c1nc(C#N)nn1-c1ccc(C#N)cn1 (stereo not drawn) [Compound P48, N-[1-[5-cyano-2-(5-cyano-2-pyridyl)-1,2,4-triazol-3-yl]ethyl]-3,5-bis(trifluoromethyl) benzamide]
≥ 80%: percent control (mortality or growth inhibition) at 200 ppm [1] | percent control (mortality, anti-feedant effect or growth inhibition) at 200 ppm [3] | percent control (mortality, anti-feedant effect or growth inhibition) at 200 ppm [4]

CC(NC(=O)c1cc(Br)cc(C(F)(F)F)c1)c1nc(Br)nn1-c1ccc(OCC(F)(F)F)cn1 (stereo not drawn) [Compound P50, 3-bromo-N-[1-[5-bromo-2-[5-(2,2,2-trifluoroethoxy)-2-pyridyl]-1,2,4-triazol-3-yl]ethyl]-5-(trifluoromethyl) benzamide]
≥ 80%: percent control (mortality or growth inhibition) at 200 ppm [2] | percent control (mortality, anti-feedant effect or growth inhibition) at 200 ppm [3]
